US7494821B2, “Fluorescein based sensors for tracking nitric oxide in live cells” (Massachusetts Institute of Technology, priority 2005, dated 2009)

Assay: Specificity for NO over other reactive nitrogen and oxygen species
Conditions: 100 equivalents of O2−, ClO−, H2O2, HNO, NO2−, NO3−, ONOO−, 2 h, pH 7.0 buffer, 1 μM
Experimental: FIG. 6 illustrates the specificity of Cu(FL5) for NO over other reactive nitrogen and oxygen species. The fluorescence response of Cu(FL5) was determined after addition of 100 equivalents of O2^−, ClO^−, H2O2, HNO (Angeli's salt Na2N2O3), NO2^−, NO3^−, and ONOO^− for 2 h in buffered aqueous solution (50 mM PIPES, pH 7.0, 100 mM KCl). The excitation wavelength was 503 nm. All data (F) are normalized with respect to the emission of Cu(FL5) (F(Cu(FL5))). [Cu(FL5)]=1 μM. Error bars indicate s.d.
The fluorescence of a 1 μM FL5 solution was diminished by 18±3% upon introduction of an equimolar quantity of CuCl2 at 37° C. Addition of excess NO to a buffered aqueous Cu(FL5) solution led to an immediate 11.2±1.5-fold increase in fluorescence (FIG. 5). […] The lower detection limit for NO is 5 nM.

## Cc1ccc2cccc(NCc3c([O][Cu][Cl])ccc4c(-c5ccccc5C(=O)O)c5cc(Cl)c(=O)cc-5oc34)c2n1 [Cu(FL5)]
  fluorescence response specificity for NO over other reactive species: detects NO specifically
